Test results as given in patent US20090176792A1, “SUBSTITUTED DIBENZHYDRYLPIPERAZINES” (AUSPEX PHARMACEUTICALS, INC., priority 2008, published 2009).

Experiments:
[1] = In vitro liver microsomal stability assay; conditions: human liver microsomes 1 mg per mL, 1 μM, 37° C., vs non-isotopically enriched drug
Procedure: Test compounds were prepared as solutions in 20% acetonitrile-water and added to the assay mixture (final assay concentration 1 μM) and incubated at 37° C. Final concentration of acetonitrile in the assay should be <1%. Aliquots (50 μL) were taken out at times 0, 15, 30, 45, and 60 min, and diluted with ice cold acetonitrile (200 μL) to stop the reactions. Samples were centrifuged at 12,000 RPM for 10 min to precipitate proteins. Supernatants were transferred to micro centrifuge tubes and stored for LC/MS/MS analysis of the degradation half-life of the test compounds.

cytochrome P450 CYP2D6 = cytochrome P450 CYP2D6 (Homo sapiens, UniProt P10635); conditions: cited from earlier work
cytochrome P450 CYP2D6, sequence (P10635 whole entry): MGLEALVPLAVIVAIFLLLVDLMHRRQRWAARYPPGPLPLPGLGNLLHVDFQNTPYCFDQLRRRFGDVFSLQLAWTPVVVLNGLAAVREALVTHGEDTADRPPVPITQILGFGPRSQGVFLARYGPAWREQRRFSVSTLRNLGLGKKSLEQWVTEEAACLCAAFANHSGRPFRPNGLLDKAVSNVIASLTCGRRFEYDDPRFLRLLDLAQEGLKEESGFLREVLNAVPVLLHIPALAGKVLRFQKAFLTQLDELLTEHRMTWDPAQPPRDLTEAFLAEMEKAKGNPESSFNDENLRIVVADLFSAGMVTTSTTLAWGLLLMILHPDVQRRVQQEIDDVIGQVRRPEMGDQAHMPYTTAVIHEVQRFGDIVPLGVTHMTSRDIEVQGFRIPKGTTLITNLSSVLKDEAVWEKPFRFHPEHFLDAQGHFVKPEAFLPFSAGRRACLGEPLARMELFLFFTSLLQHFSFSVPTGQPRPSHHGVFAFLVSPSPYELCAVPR

| % Increase of HLM degradation half-life ([1]; column 0%-5%) | % Increase of HLM degradation half-life ([1]; column 5-15%) | Compound | inhibition of cytochrome P450 CYP2D6 (cytochrome P450 CYP2D6) |
| --- | --- | --- | --- |
| + (0%-5%) | – | CN1CCN(C(c2ccccc2)c2ccccc2)CC1 [Example 1, 1-benzhydryl-4-methylpiperazine] | inhibit |
| – | + (5-15%) | [2H]C([2H])([2H])N1CCN(C(c2ccccc2)c2ccccc2)CC1 [Example 2, d3-1-Benzhydryl-4-methylpiperazine] | – |
